Some test systems named below: OVCAR-5; U-251; SF-295; A498; A549; UACC-62; HCC 2998; DU-145; UO-31; OVCAR-3; SN12C; MCF7; RPMI-8226; HL-60; CAKI-1; K562; HT-29; COLO 205; PC-3.
Holding throughout (experiment): DTP human tumour cell line panel, 48 h

Each structure is given as a SMILES string.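 Assay format: 96-well plates, 48-hour exposure. At the GI50, growth is halved.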 Activity calls are given as the source filed them. Rule as the data show it: active = GI50 up to about 1.1 µM and inactive = higher.

With `CC(/C=N/N(C)C1=NCCCCN1)=N/N(C)C1=NCCCCN1`, the GI50 (in general, the concentration giving 50% growth inhibition) with OVCAR-5 was > 100 µM (inactive); with U-251, > 100 µM (inactive); in the assay with SF-295, > 100 µM (inactive); with A498, 97.9 µM (inactive); with A549, > 100 µM (inactive); in the assay with UACC-62, > 100 µM (inactive). Also, the GI50 in the assay on HCC 2998, in the assay with DU-145, with UO-31, with OVCAR-3, with SN12C and in the assay with MCF7 was > 100 µM (inactive) throughout. Further, the GI50 in the assay with RPMI-8226, in the assay on HL-60, with CAKI-1, in the assay with K562, with HT-29 and in the assay on COLO 205 was > 100 µM (inactive) throughout. In addition, the GI50 with PC-3 was > 100 µM (inactive).
On to `OC(c1ccccc1)c1c(-c2ccccc2)oc(-c2ccccc2)c1C(O)c1ccccc1` (centres undefined), for which the GI50 in the assay on OVCAR-5 was 15.6 µM (inactive); with U-251, 14 µM (inactive); in the assay with SF-295, 15.1 µM (inactive); with A498, 16.8 µM (inactive); in the assay with A549 it was 5.73 µM (inactive); in the assay on UACC-62, 11.2 µM (inactive). The GI50 with HCC 2998 is 16.8 µM (inactive); in the assay with DU-145, 13.7 µM (inactive); in the assay with UO-31, 10.6 µM (inactive); with OVCAR-3 it was 5.73 µM (inactive); in the assay with SN12C, 6.22 µM (inactive); in the assay on MCF7, 4.37 µM (inactive). The GI50 in the assay with RPMI-8226 was 2.72 µM (inactive); with HL-60 it was 3.26 µM (inactive); in the assay on CAKI-1 it was 15.2 µM (inactive); in the assay on K562, 3.58 µM (inactive); in the assay on HT-29, 11.1 µM (inactive); in the assay with COLO 205, 5.87 µM (inactive). The GI50 with PC-3 was 9.33 µM (inactive).
`CCCCCCOc1ccc(C(=O)NOC)cc1`: the GI50 was > 100 µM (inactive) in the assay on OVCAR-5; > 100 µM (inactive) with U-251; > 100 µM (inactive) in the assay on SF-295; 99.1 µM (inactive) in the assay with A498; 66.7 µM (inactive) in the assay with A549; > 100 µM (inactive) in the assay with UACC-62. For the same compound, the GI50 is > 100 µM (inactive) with HCC 2998; > 100 µM (inactive) in the assay on DU-145; 30.3 µM (inactive) in the assay with UO-31; > 100 µM (inactive) with OVCAR-3; > 100 µM (inactive) with SN12C; > 100 µM (inactive) in the assay with MCF7. The GI50 in the assay on RPMI-8226 is 36 µM (inactive); with HL-60 it was 26.9 µM (inactive); in the assay on CAKI-1, 96.8 µM (inactive); with K562, 40.4 µM (inactive); with HT-29, > 100 µM (inactive); with COLO 205, > 100 µM (inactive). In addition, the GI50 in the assay with PC-3 was 60.1 µM (inactive).
With `C[N+]1=C2[B-](C(C)(C)C)=[N+](C(C)(C)C)[B-]2(C(C)(C)C)[N+](C)=C2[B-](C(C)(C)C)=[N+](C(C)(C)C)[B-]21C(C)(C)C` (centres undefined), the GI50 was > 100 µM (inactive) in the assay with OVCAR-5; > 100 µM (inactive) in the assay with U-251; 61.9 µM (inactive) in the assay on SF-295; > 100 µM (inactive) in the assay with A498; > 100 µM (inactive) in the assay with A549; > 100 µM (inactive) with UACC-62. The GI50 with HCC 2998 is > 100 µM (inactive); in the assay with DU-145, > 100 µM (inactive); with UO-31 it was > 100 µM (inactive); in the assay with OVCAR-3, > 100 µM (inactive); with SN12C, > 100 µM (inactive); in the assay with MCF7 it was 59.4 µM (inactive). Besides, the GI50 in the assay with RPMI-8226, in the assay on HL-60, in the assay with CAKI-1, in the assay with K562, in the assay on HT-29 and in the assay on COLO 205 was > 100 µM (inactive) in each case. Also, in the assay on PC-3, the GI50 is > 100 µM (inactive).
In the case of `CC(C)(C)OC(=O)N(CCCCNC(=O)c1ccccc1)CCCNC(=O)c1ccccc1`, the GI50 in the assay on OVCAR-5, with U-251, with SF-295, in the assay with A498, with A549 and in the assay on UACC-62 was > 100 µM (inactive) each time. In addition, the GI50 in the assay with HCC 2998 is > 100 µM (inactive); with DU-145 it was > 100 µM (inactive); in the assay on UO-31, 90.6 µM (inactive); in the assay on OVCAR-3 it was > 100 µM (inactive); in the assay with SN12C it was > 100 µM (inactive); in the assay with MCF7, > 100 µM (inactive). Also, the GI50 in the assay on RPMI-8226 was > 100 µM (inactive); with HL-60 it was 31.4 µM (inactive); in the assay on CAKI-1, > 100 µM (inactive); with K562 it was > 100 µM (inactive); in the assay with HT-29 it was > 100 µM (inactive); in the assay on COLO 205, > 100 µM (inactive). For the same compound, in the assay with PC-3, the GI50 was 98.6 µM (inactive).
`Cc1ccsc1/C=N/Nc1ncccn1`: the GI50 in the assay on OVCAR-5, in the assay with U-251, in the assay with SF-295, in the assay with A498, in the assay with A549 and in the assay on UACC-62 was > 100 µM (inactive) throughout. Also, the GI50 is > 100 µM (inactive) in the assay on HCC 2998; > 100 µM (inactive) in the assay with DU-145; > 100 µM (inactive) in the assay with UO-31; > 100 µM (inactive) in the assay with OVCAR-3; > 100 µM (inactive) with SN12C; 0.741 µM (active) with MCF7. The GI50 in the assay with RPMI-8226, with HL-60, with CAKI-1, in the assay with K562, in the assay on HT-29 and in the assay on COLO 205 was > 100 µM (inactive) in each case. The GI50 in the assay with PC-3 was > 100 µM (inactive).
Turning to `CCOC(=O)/C=C1\C[C@H](NC(=O)OCc2ccccc2)C(=O)N1CC(=O)OCC`, the GI50 with OVCAR-5, in the assay on U-251, with SF-295, with A498, with A549 and with UACC-62 was > 100 µM (inactive) in each case. The GI50 in the assay on HCC 2998, in the assay on DU-145, in the assay on UO-31, in the assay on OVCAR-3, with SN12C and in the assay with MCF7 was > 100 µM (inactive) throughout. In addition, the GI50 with RPMI-8226, in the assay on HL-60, with CAKI-1, in the assay with K562, with HT-29 and in the assay on COLO 205 was > 100 µM (inactive) each time. Moreover, in the assay with PC-3, the GI50 was > 100 µM (inactive).
Consider `CC(=O)Nc1nc(C)c(S(=O)(=O)NC(=O)NC2NC(=O)NC2=O)s1` (centres undefined), for which the GI50 in the assay on OVCAR-5, in the assay with U-251, in the assay with SF-295, in the assay on A498, in the assay on A549 and in the assay with UACC-62 was > 100 µM (inactive) in each case. The GI50 in the assay on HCC 2998, in the assay on DU-145, with UO-31, with OVCAR-3, with SN12C and in the assay on MCF7 was > 100 µM (inactive) throughout. Moreover, the GI50 in the assay with RPMI-8226, in the assay with HL-60, with CAKI-1, in the assay on K562, in the assay with HT-29 and in the assay with COLO 205 was > 100 µM (inactive) in each case. Besides, the GI50 with PC-3 was > 100 µM (inactive).
With `O=c1c2cc3c(cc2[nH]c2ncccc12)OCO3`, the GI50 in the assay on OVCAR-5, in the assay on U-251, in the assay on SF-295, in the assay with A498, in the assay on A549 and with UACC-62 was > 10 µM (inactive) throughout. The GI50 in the assay on HCC 2998, in the assay with DU-145, in the assay with OVCAR-3, in the assay with SN12C, with MCF7 and in the assay on RPMI-8226 was > 10 µM (inactive) throughout. The GI50 with HL-60, in the assay on CAKI-1, in the assay on K562, in the assay with HT-29, in the assay with COLO 205 and in the assay with PC-3 was > 10 µM (inactive) throughout.
Regarding `OCCNc1ncnc2[nH]cnc12`, the GI50 in the assay on OVCAR-5, in the assay with U-251, in the assay with SF-295, with A498, in the assay with A549 and in the assay on UACC-62 was > 100 µM (inactive) each time. Besides, the GI50 in the assay with HCC 2998, in the assay with DU-145, with UO-31, in the assay with OVCAR-3, in the assay with SN12C and in the assay with MCF7 was > 100 µM (inactive) throughout. In addition, the GI50 with RPMI-8226, in the assay on HL-60, in the assay with CAKI-1, with K562, in the assay with HT-29 and with COLO 205 was > 100 µM (inactive) throughout. Also, the GI50 in the assay on PC-3 is > 100 µM (inactive).

The values above are taken from ChEMBL document CHEMBL1201862, “PubChem BioAssay data set” (2004).
